#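 Tested at 5 concentrations; 48 h exposure; 96-well plates; endpoints linearly interpolated, else capped at highest concentration. The concentration for 50% growth inhibition is given as GI50.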 The source made the active and inactive calls. Rule as the data show it: active = GI50 up to about 1.1 µM and inactive = higher.
# Legend:
# Test in all cases: NCI-60 cell line screen, 48 h
# [1] = system: NCI-H23
# [2] = system: TK-10
# [3] = system: OVCAR-5
# [4] = system: UACC-62
# [5] = system: MDA-N
# [6] = system: MOLT-4
# [7] = system: IGROV-1
# [8] = system: SF-539
# [9] = system: SN12C
# [10] = system: OVCAR-4
# [11] = system: EKVX
# [12] = system: HL-60
# [13] = system: LOX IMVI
# [14] = system: KM12
# [15] = system: Malme-3M
# [16] = system: K562
# [17] = system: SK-OV-3
# [18] = system: NCI-H226
# [19] = system: RXF 393
SMILES,GI50 [1],GI50 [2],GI50 [3],GI50 [4],GI50 [5],GI50 [6],GI50 [7],GI50 [8],GI50 [9],GI50 [10],GI50 [11],GI50 [12],GI50 [13],GI50 [14],GI50 [15],GI50 [16],GI50 [17],GI50 [18],GI50 [19]
CCOC(=O)C1(C(=O)OCC)C[C@]23OCCC(=O)[C@H]2[C@H]2C(=O)OC(C)(C)O[C@]23C1,> 100 µM (inactive),> 100 µM (inactive),> 100 µM (inactive),> 100 µM (inactive),> 100 µM (inactive),> 100 µM (inactive),> 100 µM (inactive),> 100 µM (inactive),> 100 µM (inactive),> 100 µM (inactive),> 100 µM (inactive),> 100 µM (inactive),> 100 µM (inactive),> 100 µM (inactive),> 100 µM (inactive),,,,
N#Cc1nc(C#N)c(NC(=O)c2ccccc2C(=O)O)[nH]1,> 100 µM (inactive),> 100 µM (inactive),> 100 µM (inactive),> 100 µM (inactive),> 100 µM (inactive),> 100 µM (inactive),> 100 µM (inactive),> 100 µM (inactive),> 100 µM (inactive),,> 100 µM (inactive),> 100 µM (inactive),> 100 µM (inactive),> 100 µM (inactive),> 100 µM (inactive),> 100 µM (inactive),> 100 µM (inactive),> 100 µM (inactive),
CCOP(=O)(OCC)C(C(=O)OC)C(=O)C(=O)Nc1ccc(Cl)cc1Cl (centres undefined),> 100 µM (inactive),> 100 µM (inactive),> 100 µM (inactive),> 100 µM (inactive),,> 100 µM (inactive),> 100 µM (inactive),> 100 µM (inactive),> 100 µM (inactive),> 100 µM (inactive),> 100 µM (inactive),> 100 µM (inactive),> 100 µM (inactive),> 100 µM (inactive),> 100 µM (inactive),> 100 µM (inactive),> 100 µM (inactive),> 100 µM (inactive),65.3 µM (inactive)
COc1ccc(C(=O)C=C2NCCN2)cc1,> 100 µM (inactive),> 100 µM (inactive),> 100 µM (inactive),> 100 µM (inactive),,> 100 µM (inactive),> 100 µM (inactive),> 100 µM (inactive),> 100 µM (inactive),> 100 µM (inactive),> 100 µM (inactive),> 100 µM (inactive),> 100 µM (inactive),> 100 µM (inactive),> 100 µM (inactive),> 100 µM (inactive),> 100 µM (inactive),> 100 µM (inactive),> 100 µM (inactive)
CC(=O)OCC1OC(OC2CC3C(C)(C)C(O)CC[C@]3(C)C3CCC45CC4(CC[C@H]5C(C)CC(O)C4OC4(C)C)[C@]23C)C(O)C(O)C1O (some centres undefined),8.75 µM (inactive),8.73 µM (inactive),9.12 µM (inactive),7.45 µM (inactive),,0.701 µM (active),0.966 µM (active),7.98 µM (inactive),8.24 µM (inactive),8.73 µM (inactive),8.61 µM (inactive),0.973 µM (active),5.2 µM (inactive),8.04 µM (inactive),8.97 µM (inactive),1.85 µM (inactive),8.2 µM (inactive),8.95 µM (inactive),4.2 µM (inactive)
O=C(O)CCNCCCCNCCC(=O)O,> 100 µM (inactive),> 100 µM (inactive),> 100 µM (inactive),> 100 µM (inactive),,> 100 µM (inactive),> 100 µM (inactive),> 100 µM (inactive),> 100 µM (inactive),> 100 µM (inactive),> 100 µM (inactive),> 100 µM (inactive),> 100 µM (inactive),> 100 µM (inactive),> 100 µM (inactive),> 100 µM (inactive),> 100 µM (inactive),> 100 µM (inactive),> 100 µM (inactive)
